Results published in article PMC4783990, “Cloning and Characterization of a Flavonoid 3′-Hydroxylase Gene from Tea Plant (Camellia sinensis)” (International Journal of Molecular Sciences, 2016).
Read-outs that look alike come from different tables or passages of the source. One block for each molecule: values may come before it.

Molecular target: T1, CsF3′H (Camellia sinensis, UniProt A0A0S2LLA9)
T1 construct: microsomes of Saccharomyces cerevisiae WAT11, which co-expresses an Arabidopsis thaliana P450 reductase; ORF amplified with its own stop codon, no tag stated
T1 sequence (A0A0S2LLA9 entry or part of it): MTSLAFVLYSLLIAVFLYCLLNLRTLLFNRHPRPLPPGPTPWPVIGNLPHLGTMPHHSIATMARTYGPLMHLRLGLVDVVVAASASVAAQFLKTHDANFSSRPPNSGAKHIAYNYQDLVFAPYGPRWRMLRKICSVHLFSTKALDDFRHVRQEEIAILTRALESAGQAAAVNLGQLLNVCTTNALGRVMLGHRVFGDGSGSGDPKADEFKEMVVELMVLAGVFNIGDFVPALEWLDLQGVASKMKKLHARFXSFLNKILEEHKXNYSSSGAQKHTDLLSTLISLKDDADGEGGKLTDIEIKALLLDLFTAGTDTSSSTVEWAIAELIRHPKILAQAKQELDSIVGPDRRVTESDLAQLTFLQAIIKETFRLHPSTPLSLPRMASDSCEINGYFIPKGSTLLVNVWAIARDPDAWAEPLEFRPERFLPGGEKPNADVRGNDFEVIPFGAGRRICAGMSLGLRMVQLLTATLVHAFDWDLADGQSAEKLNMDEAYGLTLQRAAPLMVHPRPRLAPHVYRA
Test: HPLC product formation with recombinant yeast microsomes
Type: biochemical
Conditions: 1.0 mM NADPH, 100 mM sodium phosphate pH 7.0, 30 °C, 30 min
Excerpt: HPLC product formation with recombinant yeast microsomes on CsF3′H

Km (racemic substrate, read-out: Dihydrokaempferol): 143.6 ± 0.69 µM
SMILES: O=C1c2c(O)cc(O)cc2OC(c2ccc(O)cc2)C1O (racemic) [Dihydrokaempferol]

Km (read-out: Kaempferol): 68.06 ± 0.43 µM
SMILES: O=c1c(O)c(-c2ccc(O)cc2)oc2cc(O)cc(O)c12 [Kaempferol]

Km (racemic substrate, read-out: Naringenin): 17.1 ± 0.46 µM
SMILES: O=C1CC(c2ccc(O)cc2)Oc2cc(O)cc(O)c21 (racemic) [Naringenin]
